# From ChEMBL document CHEMBL1139373, “Metabolic soft spot identification and compound optimization in early discovery phases using MetaSite and LC-MS/MS validation” (J Med Chem, 2009)
# Experiment: Metabolic stability in human liver microsomes assessed as intrinsic clearance per mg of protein
# Settings: liver microsomes
row,Structure (SMILES),microsomal CLint [µL/min/mg]
1,CN1CC(=O)N2[C@H](c3ccc4c(c3)OCO4)c3[nH]c4ccccc4c3C[C@@H]2C1=O,49
2,CC(=O)CC(c1ccc([N+](=O)[O-])cc1)c1c(O)c2ccccc2oc1=O (stereo unspecified) [ACENOCOUMAROL],37
3,CC(C)COCC(CN(Cc1ccccc1)c1ccccc1)N1CCCC1 (stereo unspecified) [BEPRIDIL],94
4,c1ccc(C2(c3ccccc3)CC2C2=NCCN2)cc1 (stereo unspecified) [CIFENLINE],28
5,CN(C)CCCC1(c2ccc(F)cc2)OCc2cc(C#N)ccc21 (stereo unspecified) [CITALOPRAM],36
6,c1ccc2c(c1)Sc1ccccc1N2CC1CN2CCC1CC2 (stereo unspecified) [MEQUITAZINE],34
7,CN(C)CCOc1ccc(/C(=C(/CCCl)c2ccccc2)c2ccccc2)cc1 [TOREMIFENE],31
8,CC(/C=C/C(=O)NO)=C\[C@@H](C)C(=O)c1ccc(N(C)C)cc1 [TRICHOSTATIN],107
9,CN1[C@@H]2CC[C@H]1C[C@@H](OC(=O)c1c[nH]c3ccccc13)C2 [TROPISETRON],22
10,COc1ccc(C(CN(C)C)C2(O)CCCCC2)cc1 (stereo unspecified) [VENLAFAXINE],59

# Same assay, conditions: microsomes
row,Structure (SMILES),microsomal CLint [µL/min/mg]
1,COc1ccccc1OCCNCC(O)COc1cccc2[nH]c3ccccc3c12 (stereo unspecified) [CARVEDILOL],235
2,CN(C)CCCN1c2ccccc2Sc2ccc(Cl)cc21 [CHLORPROMAZINE],117
3,O=c1c(O)c(-c2ccc(O)cc2)oc2cc(O)cc(O)c12 [KAEMPFEROL],269
4,CNC1(c2ccccc2Cl)CCCCC1=O (stereo unspecified) [KETAMINE],136
5,CNCCCC12CCC(c3ccccc31)c1ccccc12 [MAPROTILINE],31
6,Cc1ncc2n1-c1ccc(Cl)cc1C(c1ccccc1F)=NC2 [MIDAZOLAM],554
